Reference: patent US5286492A, “Method of treatment of Heliobacter pylori infections with triclosan” (Reckitt & Colman Products Limited, priority 1990, dated 1994)
Values after ≈ are worked out from the molar mass of the structure shown. Where two headings read alike, the source gives them in different places.

Experiments:
Helicobacter pylori [1] = test: MIC50/MIC90 versus Helicobacter pylori by agar dilution technique at neutral pH; type: cell-based; settings: for activity compared with the twelve agents tested: Table 1
Description: (§1) The in vitro activities of a range of antimicrobial compounds versus Helicobacter pylori were determined by methods based on those of McNulty et al (Antimicrobial Agents and Chemotherapy, 28, 837-838, 1985). The Minimum Inhibitory concentrations for 50% and 90% of the strains used (MIC50 and MIC90), versus each antimicrobial were determined using an agar dilution technique.
(§2) The MIC of an antimicrobial agent was defined as that concentration (in mg per liter of agar) at which less than 1 in 10^5 organisms produced visible colonies.
(§3) Helicobacter pylori strains were isolated from gastric antrum biopsy specimens taken at routine endoscopy during investigation of upper gastrointestinal symptoms. They were identified as Helicobacter pylori by their colonial morphology, gram stain appearance and positive rapid urease test. The organisms were stored in liquid nitrogen before use and subcultured for testing by 48 hour incubation, at 37° C. under 10% carbon dioxide in Tryptone Soya Broth (TSB, OXOID, UK) plus 5% horse serum (Tissue Culture Services, UK).
The first test procedure determined the effectiveness of a range of antimicrobial substances versus 16 to 18 strains of Helicobacter pylori at neutral pH. Freshly prepared Isosensitest Agar of pH 7.2 (Oxoid, UK) supplemented with 10% saponinlysed horse blood was used to prepare a dilution series of each antimicrobial from which agar plates were produced. A multipoint inoculator (Denley-Tech, UK) was used to deliver 1 µl of undiluted test culture to the surface of each plate in the dilution series to give approximately 10^6 cfu/spot. The plates were incubated for three days at 37° C. in a microaerobic atmosphere of 6% oxygen and 10% carbon dioxide.

Helicobacter pylori [2] = test: Effect of pH (5 to 8) on activity (MIC90) against Helicobacter pylori, agar dilution; type: cell-based; settings: for MIC / MIC90: Helicobacter pylori; for activity compared among the three agents (in words) / effect of pH on activity (in words): pH range 5 to 8
Description: as §1, §2, §3
The three selected agents were triclosan, clioquinol (5-chloro-7-iodo-8-hydroxy-quinolone) and cetalkonium chloride.
In the test procedure, Sorensens phosphate buffer (0.1M) was used to prepare the range of pH values 5, 5.5, 6, 6.5, 7, 7.5 and 8. Oxoid Columbia Agar Base (CM331) was added and the media autoclaved. After cooling to 50° C., 7% Lysed Horse Blood (Tissue Culture Services, UK) was added and media at each pH was used to prepare a range of concentrations of the three selected test antimicrobial agents. To ensure pH stability, a surface pH electrode was used to monitor control plates before, during and at the end of the three day microaerobic incubation.
The MIC90 was determined for each at each pH as described in the previous test procedure.

Helicobacter pylori [3] = settings: cited from earlier work
[4] = tested on: Helicobacter pylori infection; settings: by twelve months post therapy; cited from earlier work
[5] = Helicobacter pylori, 72 h, eighteen isolates, neutral pH (agar pH 7.2), read-out: MIC50
[6] = Helicobacter pylori, eighteen isolates, neutral pH (agar pH 7.2), read-out: MIC Range
[7] = pH 5.0, sixteen isolates (triclosan, clioquinol) or eighteen (cetalkonium chloride), read-out: MIC90
[8] = pH 5.0, sixteen isolates (triclosan, clioquinol) or eighteen (cetalkonium chloride), read-out: MIC Range
[9] = pH 5.5, sixteen isolates (triclosan, clioquinol) or eighteen (cetalkonium chloride), read-out: MIC90
[10] = pH 5.5, sixteen isolates (triclosan, clioquinol) or eighteen (cetalkonium chloride), read-out: MIC Range
[11] = pH 6.0, sixteen isolates (triclosan, clioquinol) or eighteen (cetalkonium chloride), read-out: MIC90
[12] = pH 6.0, sixteen isolates (triclosan, clioquinol) or eighteen (cetalkonium chloride), read-out: MIC Range
[13] = pH 6.5, sixteen isolates (triclosan, clioquinol) or eighteen (cetalkonium chloride), read-out: MIC90
[14] = pH 7.0, sixteen isolates (triclosan, clioquinol) or eighteen (cetalkonium chloride), read-out: MIC90
[15] = pH 7.0, sixteen isolates (triclosan, clioquinol) or eighteen (cetalkonium chloride), read-out: MIC Range
[16] = pH 7.5, sixteen isolates (triclosan, clioquinol) or eighteen (cetalkonium chloride), read-out: MIC90
[17] = pH 7.5, sixteen isolates (triclosan, clioquinol) or eighteen (cetalkonium chloride), read-out: MIC Range
[18] = pH 8.0, sixteen isolates (triclosan, clioquinol) or eighteen (cetalkonium chloride), read-out: MIC90
[19] = Helicobacter pylori, pH 7.2, read-out: MIC Range
[20] = Helicobacter pylori, eighteen isolates, neutral pH (agar pH 7.2), read-out: MIC90
[21] = eighteen isolates, neutral pH (agar pH 7.2)

Compound: CCCCCCc1ccc(O)cc1O [4-Hexylresorcinol]
- MIC50 (Helicobacter pylori [1]; [5]): 32 µg/mL (≈ 165 µM)
- MIC90 (Helicobacter pylori [1]; Helicobacter pylori, pH 7.2): 32 µg/mL (≈ 165 µM)
- MIC (Helicobacter pylori [1]; [6]): 16 to 32 µg/mL (≈ 82.4 to 165 µM)

Compound: CCCCCCCCCCCCCCCC[N+](C)(C)Cc1ccccc1 [Cetalkonium Cl]
- MIC (Helicobacter pylori [2]; pH 8, read-out: MIC Range): 1 to 8 µg/mL
- MIC90 (Helicobacter pylori [2]; [7]): 1 µg/mL
- MIC (Helicobacter pylori [2]; [8]): 0.5 to 2 µg/mL
- MIC90 (Helicobacter pylori [2]; [9]): 2 µg/mL
- MIC (Helicobacter pylori [2]; [10]): 0.5 to 2 µg/mL
- MIC90 (Helicobacter pylori [2]; [11]): 2 µg/mL
- MIC (Helicobacter pylori [2]; [12]): 1 to 4 µg/mL
- MIC90 (Helicobacter pylori [2]; [13]): 4 µg/mL
- MIC (Helicobacter pylori [2]; pH 6.5, sixteen isolates (triclosan, clioquinol) or eighteen (cetalkonium chloride), read-out: MIC Range): 2 to 4 µg/mL
- MIC90 (Helicobacter pylori [2]; [14]): 4 µg/mL
- MIC (Helicobacter pylori [2]; [15]): 2 to 4 µg/mL
- MIC90 (Helicobacter pylori [2]; [16]): 4 µg/mL
- MIC (Helicobacter pylori [2]; [17]): 1 to 4 µg/mL
- MIC90 (Helicobacter pylori [2]; [18]): 2 µg/mL
- activity compared among the three agents (in words) (Helicobacter pylori [2]): demonstrated similar MIC90 activity profiles across the pH range
- effect of pH on activity (in words) (Helicobacter pylori [2]): largely unaffected by pH over the range 5 to 8
- MIC50 (Helicobacter pylori [1]; [5]): 2 µg/mL
- MIC (Helicobacter pylori [1]; [19]): 2 to 4 µg/mL
- MIC90 (Helicobacter pylori [1]; [20]): 4 µg/mL

Compound: Oc1c(I)cc(Cl)c2cccnc12 [Clioquinol, 5-chloro-7-iodo-8-hydroxy-quinolone]
- MIC (Helicobacter pylori [2]; pH 6.5, read-out: MIC Range): 0.5 to 16 µg/mL (≈ 1.64 to 52.4 µM)
- MIC (Helicobacter pylori [2]; pH 8, read-out: MIC Range): 0.5 to 2 µg/mL (≈ 1.64 to 6.55 µM)
- MIC90 (Helicobacter pylori [2]; [7]): 2 µg/mL (≈ 6.55 µM)
- MIC (Helicobacter pylori [2]; [8]): 0.5 to 4 µg/mL (≈ 1.64 to 13.1 µM)
- MIC90 (Helicobacter pylori [2]; [9]): 8 µg/mL (≈ 26.2 µM)
- MIC (Helicobacter pylori [2]; [10]): 2 to 8 µg/mL (≈ 6.55 to 26.2 µM)
- MIC90 (Helicobacter pylori [2]; [11]): 8 µg/mL (≈ 26.2 µM)
- MIC (Helicobacter pylori [2]; [12]): 2 to 8 µg/mL (≈ 6.55 to 26.2 µM)
- MIC90 (Helicobacter pylori [2]; [13]): 8 µg/mL (≈ 26.2 µM)
- MIC90 (Helicobacter pylori [2]; [14]): 2 µg/mL (≈ 6.55 µM)
- MIC (Helicobacter pylori [2]; [15]): 0.5 to 4 µg/mL (≈ 1.64 to 13.1 µM)
- MIC90 (Helicobacter pylori [2]; [16]): 2 µg/mL (≈ 6.55 µM)
- MIC (Helicobacter pylori [2]; [17]): 0.5 to 4 µg/mL (≈ 1.64 to 13.1 µM)
- MIC90 (Helicobacter pylori [2]; [18]): 1 µg/mL (≈ 3.27 µM)
- MIC50 (Helicobacter pylori [1]; [5]): 16 µg/mL (≈ 52.4 µM)
- MIC (Helicobacter pylori [1]; [19]): 8 to 16 µg/mL (≈ 26.2 to 52.4 µM)
- MIC90 (Helicobacter pylori [1]; [20]): 16 µg/mL (≈ 52.4 µM)

Compound: Oc1ccc(Cl)cc1Cc1cc(Cl)ccc1O [Dichlorphen]
- MIC50 (Helicobacter pylori [1]; [5]): 16 µg/mL (≈ 59.5 µM)
- MIC90 (Helicobacter pylori [1]; [20]): 16 µg/mL (≈ 59.5 µM)
- MIC (Helicobacter pylori [1]; [6]): 8 to 16 µg/mL (≈ 29.7 to 59.5 µM)

Compound: COc1ccccc1O [Guaiacol]
- MIC50 (Helicobacter pylori [1]; [5]): 64 µg/mL (≈ 516 µM)
- MIC90 (Helicobacter pylori [1]; [20]): 64 µg/mL (≈ 516 µM)
- MIC (Helicobacter pylori [1]; [6]): 32 to 128 µg/mL (≈ 258 to 1030 µM)

Compound: CCCCC(CC)CN1CN(CC(CC)CCCC)CC(C)(N)C1 (stereo not drawn) [Hexetidine]
- MIC50 (Helicobacter pylori [1]; [5]): 16 µg/mL (≈ 47.1 µM)
- MIC90 (Helicobacter pylori [1]; [20]): 16 µg/mL (≈ 47.1 µM)
- MIC (Helicobacter pylori [1]; [6]): 8 to 16 µg/mL (≈ 23.6 to 47.1 µM)

Compound: N=C(NCCCCCCNC(=N)NC(=N)Nc1ccc(Cl)cc1)NC(=N)Nc1ccc(Cl)cc1 [Hibitane]
- MIC50 (Helicobacter pylori [1]; [5]): 32 µg/mL (≈ 63.3 µM)
- MIC90 (Helicobacter pylori [1]; [20]): 32 µg/mL (≈ 63.3 µM)
- MIC (Helicobacter pylori [1]; [6]): 16 to 32 µg/mL (≈ 31.7 to 63.3 µM)

Compound: Cc1cc(O)cc(C)c1Cl [PCMX]
- MIC50 (Helicobacter pylori [1]; [5]): 32 µg/mL (≈ 204 µM)
- MIC90 (Helicobacter pylori [1]; [20]): 64 µg/mL (≈ 409 µM)
- MIC (Helicobacter pylori [1]; [6]): 8 to 64 µg/mL (≈ 51.1 to 409 µM)

Compound: CCS(=O)(=O)CCn1c([N+](=O)[O-])cnc1C [Tinidazole]
- MIC50 (Helicobacter pylori [1]; [5]): 0.5 µg/mL (≈ 2.02 µM)
- MIC (Helicobacter pylori [1]; Helicobacter pylori, 72 h, fifteen of eighteen isolates, neutral pH, read-out: MIC of sensitive isolates): < 2 µg/mL
- MIC (Helicobacter pylori [1]; Helicobacter pylori, 72 h, three of eighteen strains, neutral pH, read-out: MIC of strains demonstrating evidence of resistance): 16 µg/mL
- MIC90 (Helicobacter pylori [1]; [20]): 16 µg/mL (≈ 64.7 µM)
- MIC (Helicobacter pylori [1]; [6]): 0.25 to 16 µg/mL (≈ 1.01 to 64.7 µM)
- distribution of MICs (Helicobacter pylori [1]; eighteen isolates, neutral pH): bimodal distribution of MICs
- activity compared with the twelve agents tested (Helicobacter pylori [1]; neutral pH): demonstrated the greatest activity of the twelve antimicrobial agents tested

Compound: Oc1cc(Cl)ccc1Oc1ccc(Cl)cc1Cl [Triclosan, 2-hydroxy-4,2',4'-trichloro-diphenyl ether]
- MIC90 (Helicobacter pylori [2]; pH 5): 0.25 µg/mL (≈ 0.863 µM)
- MIC (Helicobacter pylori [2]; pH 5, read-out: MIC Range): 0.06 to 0.25 µg/mL (≈ 0.207 to 0.863 µM)
- MIC90 (Helicobacter pylori [2]; pH 5.5): 1 µg/mL (≈ 3.45 µM)
- MIC (Helicobacter pylori [2]; pH 5.5, read-out: MIC Range): 0.06 to 1 µg/mL (≈ 0.207 to 3.45 µM)
- MIC90 (Helicobacter pylori [2]; pH 6): 1 µg/mL (≈ 3.45 µM)
- MIC (Helicobacter pylori [2]; pH 6, read-out: MIC Range): 0.12 to 2 µg/mL (≈ 0.414 to 6.91 µM)
- MIC90 (Helicobacter pylori [2]; pH 6.5): 2 µg/mL (≈ 6.91 µM)
- MIC (Helicobacter pylori [2]; pH 6.5, read-out: MIC Range): 0.12 to 4 µg/mL (≈ 0.414 to 13.8 µM)
- MIC90 (Helicobacter pylori [2]; pH 7): 2 µg/mL (≈ 6.91 µM)
- MIC (Helicobacter pylori [2]; pH 7, read-out: MIC Range): 0.06 to 4 µg/mL (≈ 0.207 to 13.8 µM)
- MIC90 (Helicobacter pylori [2]; pH 7.5): 2 µg/mL (≈ 6.91 µM)
- MIC (Helicobacter pylori [2]; pH 7.5, read-out: MIC Range): 0.06 to 4 µg/mL (≈ 0.207 to 13.8 µM)
- MIC90 (Helicobacter pylori [2]; pH 8): 2 µg/mL (≈ 6.91 µM)
- MIC (Helicobacter pylori [2]; pH 8, read-out: MIC Range): 0.06 to 2 µg/mL (≈ 0.207 to 6.91 µM)
- activity compared among the three agents (in words) (Helicobacter pylori [2]): demonstrated the greatest activity
- effect of pH on activity (in words) (Helicobacter pylori [2]): low at pH 5.0 and unaffected in the range pH 5.5 to 8.0
- MIC50 (Helicobacter pylori [1]; Helicobacter pylori, 72 h, pH 7.2): 1 µg/mL (≈ 3.45 µM)
- MIC90 (Helicobacter pylori [1]; Helicobacter pylori, pH 7.2): 8 µg/mL (≈ 27.6 µM)
- MIC (Helicobacter pylori [1]; [19]): 0.25 to 16 µg/mL (≈ 0.863 to 55.3 µM)
- activity compared with the twelve agents tested (Helicobacter pylori [1]; neutral pH): demonstrated the greatest activity of the twelve antimicrobial agents tested

Compound: O=C([O-])CC(O)(CC(=O)[O-])C(=O)[O-].O=C([O-])CC(O)(CC(=O)[O-])C(=O)[O-].[Bi+3].[K+].[K+].[K+] [bismuth subcitrate]
- reported MIC90 (Helicobacter pylori [3]; neutral pH): 16 mg/L

Compound: Cc1ncc([N+](=O)[O-])n1CCO [metronidazole]
- distribution of MICs (previously reported) (Helicobacter pylori [3]): bimodal distribution

Compound: Halquinol
- MIC50 (Helicobacter pylori [1]; [21]): 16 µg/mL
- MIC90 (Helicobacter pylori [1]; [21]): 16 µg/mL
- MIC Range (Helicobacter pylori [1]; [21]): 16 mg/L

Compound: bismuth
- recurrence of the infection [4]: ~100%
